ChEMBL document CHEMBL5465560, “Selectivity Literature for EUbOPEN Chemogenomic Library” (2024)

How the values were obtained:
[1] = target: T1, Serine/threonine-protein kinase haspin (Homo sapiens) (UniProt Q8TF76); assay: Selectivity interaction (KinomeScan (DiscoverX)) EUB0001550a GSG2; details: at 1 µM
T1 sequence (whole entry): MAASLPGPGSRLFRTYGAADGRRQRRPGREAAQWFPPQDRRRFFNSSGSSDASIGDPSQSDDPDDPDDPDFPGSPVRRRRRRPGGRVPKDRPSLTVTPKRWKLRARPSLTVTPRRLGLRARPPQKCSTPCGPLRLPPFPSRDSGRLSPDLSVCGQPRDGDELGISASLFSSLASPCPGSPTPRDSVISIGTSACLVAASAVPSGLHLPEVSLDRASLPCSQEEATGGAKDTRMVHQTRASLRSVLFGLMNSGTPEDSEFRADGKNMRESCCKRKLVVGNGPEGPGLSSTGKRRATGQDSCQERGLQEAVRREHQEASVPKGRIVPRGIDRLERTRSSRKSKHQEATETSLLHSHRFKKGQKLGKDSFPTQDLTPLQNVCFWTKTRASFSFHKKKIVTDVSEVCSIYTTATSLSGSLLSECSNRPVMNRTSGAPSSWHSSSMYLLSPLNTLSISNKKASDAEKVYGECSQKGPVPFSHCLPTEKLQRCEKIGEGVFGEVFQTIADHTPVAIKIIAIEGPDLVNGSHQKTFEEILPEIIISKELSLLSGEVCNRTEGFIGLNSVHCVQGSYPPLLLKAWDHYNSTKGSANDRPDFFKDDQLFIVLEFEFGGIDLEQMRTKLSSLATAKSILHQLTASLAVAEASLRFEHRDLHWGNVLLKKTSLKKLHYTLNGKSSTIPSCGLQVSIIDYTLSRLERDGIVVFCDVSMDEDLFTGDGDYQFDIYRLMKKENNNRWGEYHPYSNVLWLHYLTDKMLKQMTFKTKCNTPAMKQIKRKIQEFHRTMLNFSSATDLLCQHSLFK

[2] = target: Tyrosine-protein kinase HCK (Homo sapiens) (UniProt P08631); assay: Selectivity interaction (ActivX KiNativ screen (kinase selectivity in THP-1 cell lysates)) EUB0000639a HCK; assay type: subcellular; details: lysate, at 0.04 µM
[3] = target: Protein kinase C gamma type (Homo sapiens) (UniProt P05129); assay: Selectivity interaction (Kinase panel (Invitrogen)) EUB0000639a PRKCG; details: at 200 nM
[4] = target: Tyrosine-protein kinase Fgr (Homo sapiens) (UniProt P09769); assay: Selectivity interaction (ActivX KiNativ screen (kinase selectivity in THP-1 cell lysates)) EUB0000639a FGR; assay type: subcellular; details: lysate
Chain of Tyrosine-protein kinase Fgr (Homo sapiens) (P09769 2-529 limits assumed): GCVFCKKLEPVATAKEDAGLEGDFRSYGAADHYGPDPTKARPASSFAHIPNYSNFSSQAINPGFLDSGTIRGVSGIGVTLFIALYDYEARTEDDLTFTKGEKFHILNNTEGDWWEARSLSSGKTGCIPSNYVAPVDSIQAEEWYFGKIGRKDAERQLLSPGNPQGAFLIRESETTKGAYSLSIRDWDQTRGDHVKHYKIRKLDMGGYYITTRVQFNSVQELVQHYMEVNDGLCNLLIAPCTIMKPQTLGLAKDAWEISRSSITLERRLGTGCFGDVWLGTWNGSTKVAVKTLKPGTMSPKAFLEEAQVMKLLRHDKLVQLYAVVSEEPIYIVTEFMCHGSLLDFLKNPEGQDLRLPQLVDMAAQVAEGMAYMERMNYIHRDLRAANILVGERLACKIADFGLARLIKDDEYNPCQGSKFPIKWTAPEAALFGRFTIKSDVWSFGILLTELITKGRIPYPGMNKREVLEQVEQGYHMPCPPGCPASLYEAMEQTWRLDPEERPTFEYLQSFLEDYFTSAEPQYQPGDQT

[5] = target: Fibroblast growth factor receptor 2 (Homo sapiens) (UniProt P21802); assay: Selectivity interaction (KinomeScan (DiscoverX)) EUB0000045b FGFR2
Chain of Fibroblast growth factor receptor 2 (Homo sapiens) (P21802 22-821 limits assumed): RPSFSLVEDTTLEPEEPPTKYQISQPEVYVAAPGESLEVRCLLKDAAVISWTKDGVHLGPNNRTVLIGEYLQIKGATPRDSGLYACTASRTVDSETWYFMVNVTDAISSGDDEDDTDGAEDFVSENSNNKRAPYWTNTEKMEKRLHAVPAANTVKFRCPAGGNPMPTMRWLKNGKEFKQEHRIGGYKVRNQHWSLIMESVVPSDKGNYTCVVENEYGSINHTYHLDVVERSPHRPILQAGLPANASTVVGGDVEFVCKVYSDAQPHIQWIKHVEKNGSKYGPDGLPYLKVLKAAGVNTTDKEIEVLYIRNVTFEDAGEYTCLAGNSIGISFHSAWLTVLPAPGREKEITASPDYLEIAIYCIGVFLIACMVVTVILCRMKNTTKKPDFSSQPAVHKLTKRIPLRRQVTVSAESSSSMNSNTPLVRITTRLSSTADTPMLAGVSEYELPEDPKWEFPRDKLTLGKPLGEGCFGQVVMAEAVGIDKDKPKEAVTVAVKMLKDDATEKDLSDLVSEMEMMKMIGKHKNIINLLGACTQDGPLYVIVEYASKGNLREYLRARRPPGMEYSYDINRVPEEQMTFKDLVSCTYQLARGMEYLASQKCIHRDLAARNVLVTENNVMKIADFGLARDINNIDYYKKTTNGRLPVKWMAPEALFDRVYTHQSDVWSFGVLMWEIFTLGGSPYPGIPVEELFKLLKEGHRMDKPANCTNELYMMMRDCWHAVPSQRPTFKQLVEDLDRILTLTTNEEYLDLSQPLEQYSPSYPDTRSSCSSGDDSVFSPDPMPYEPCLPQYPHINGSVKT

[6] = target: Serine/threonine-protein kinase SIK3 (Homo sapiens) (UniProt Q9Y2K2); assay: Selectivity interaction (KinomeScan (DiscoverX)) EUB0000618a SIK3; details: at 10 µM
[7] = target: Rho-associated protein kinase 2 (Homo sapiens, UniProt O75116); assay: Selectivity interaction (ActivX KiNativ screen (ex vivo kinase selectivity in human PBMCs)) EUB0001619a ROCK2; assay type: cell-based; details: PBMC, at 1 µM
Chain of Rho-associated protein kinase 2 (O75116 whole entry, looked up): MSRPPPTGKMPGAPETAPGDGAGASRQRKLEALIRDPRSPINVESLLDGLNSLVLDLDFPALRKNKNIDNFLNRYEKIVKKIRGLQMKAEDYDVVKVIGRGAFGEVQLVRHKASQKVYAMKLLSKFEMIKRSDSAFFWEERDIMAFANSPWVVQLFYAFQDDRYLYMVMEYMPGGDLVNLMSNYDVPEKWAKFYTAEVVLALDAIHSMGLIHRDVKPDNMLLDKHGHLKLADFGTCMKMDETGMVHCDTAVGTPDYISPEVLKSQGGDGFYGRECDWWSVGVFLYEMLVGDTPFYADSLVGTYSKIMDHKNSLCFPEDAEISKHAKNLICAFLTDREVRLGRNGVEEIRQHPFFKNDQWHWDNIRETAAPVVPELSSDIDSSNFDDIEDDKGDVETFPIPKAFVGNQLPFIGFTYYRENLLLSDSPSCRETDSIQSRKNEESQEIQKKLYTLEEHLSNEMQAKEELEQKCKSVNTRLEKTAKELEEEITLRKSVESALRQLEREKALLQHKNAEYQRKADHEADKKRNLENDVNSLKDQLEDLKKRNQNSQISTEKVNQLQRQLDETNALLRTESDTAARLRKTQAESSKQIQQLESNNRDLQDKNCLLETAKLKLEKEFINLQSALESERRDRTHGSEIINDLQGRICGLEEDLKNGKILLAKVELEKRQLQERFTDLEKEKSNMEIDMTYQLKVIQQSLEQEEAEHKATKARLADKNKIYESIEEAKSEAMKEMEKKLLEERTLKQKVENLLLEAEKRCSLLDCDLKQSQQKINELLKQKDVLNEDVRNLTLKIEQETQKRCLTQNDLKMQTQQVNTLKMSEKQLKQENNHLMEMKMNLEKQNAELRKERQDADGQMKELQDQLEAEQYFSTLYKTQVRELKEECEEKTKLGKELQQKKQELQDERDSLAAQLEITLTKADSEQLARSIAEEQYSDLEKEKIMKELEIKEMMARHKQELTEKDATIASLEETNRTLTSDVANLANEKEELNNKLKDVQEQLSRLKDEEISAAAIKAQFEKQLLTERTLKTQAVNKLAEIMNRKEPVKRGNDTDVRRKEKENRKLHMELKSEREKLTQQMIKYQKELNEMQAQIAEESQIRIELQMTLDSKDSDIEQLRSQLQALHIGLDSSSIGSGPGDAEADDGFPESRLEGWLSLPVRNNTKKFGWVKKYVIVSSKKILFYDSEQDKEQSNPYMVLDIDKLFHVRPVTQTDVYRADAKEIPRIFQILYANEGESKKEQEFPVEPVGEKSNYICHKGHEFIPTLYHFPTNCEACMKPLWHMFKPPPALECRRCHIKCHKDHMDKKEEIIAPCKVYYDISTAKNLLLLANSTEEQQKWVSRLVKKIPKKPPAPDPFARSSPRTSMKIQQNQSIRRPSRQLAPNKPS

[8] = target: Serine/threonine-protein kinase Nek7 (Homo sapiens) (UniProt Q8TDX7); assay: Selectivity interaction (KinomeScan (DiscoverX)) EUB0000655a NEK7; details: at 10 µM
Chain of Serine/threonine-protein kinase Nek7 (Homo sapiens) (Q8TDX7 whole entry, looked up): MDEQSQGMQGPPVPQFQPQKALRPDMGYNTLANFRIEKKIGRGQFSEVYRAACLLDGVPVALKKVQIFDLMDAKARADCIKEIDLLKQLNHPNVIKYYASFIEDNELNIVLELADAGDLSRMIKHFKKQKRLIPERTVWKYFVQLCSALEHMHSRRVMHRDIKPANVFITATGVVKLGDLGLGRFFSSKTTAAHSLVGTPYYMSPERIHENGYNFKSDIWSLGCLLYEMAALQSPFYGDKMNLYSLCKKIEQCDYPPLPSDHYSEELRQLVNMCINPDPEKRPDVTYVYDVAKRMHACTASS

[9] = target: Serine/threonine-protein kinase PLK1 (Homo sapiens, UniProt P53350); assay: Selectivity interaction (SelectScreen profiling (Invitrogen)) EUB0000607a PLK1; details: at 2 µM
Chain of Serine/threonine-protein kinase PLK1 (P53350 whole entry): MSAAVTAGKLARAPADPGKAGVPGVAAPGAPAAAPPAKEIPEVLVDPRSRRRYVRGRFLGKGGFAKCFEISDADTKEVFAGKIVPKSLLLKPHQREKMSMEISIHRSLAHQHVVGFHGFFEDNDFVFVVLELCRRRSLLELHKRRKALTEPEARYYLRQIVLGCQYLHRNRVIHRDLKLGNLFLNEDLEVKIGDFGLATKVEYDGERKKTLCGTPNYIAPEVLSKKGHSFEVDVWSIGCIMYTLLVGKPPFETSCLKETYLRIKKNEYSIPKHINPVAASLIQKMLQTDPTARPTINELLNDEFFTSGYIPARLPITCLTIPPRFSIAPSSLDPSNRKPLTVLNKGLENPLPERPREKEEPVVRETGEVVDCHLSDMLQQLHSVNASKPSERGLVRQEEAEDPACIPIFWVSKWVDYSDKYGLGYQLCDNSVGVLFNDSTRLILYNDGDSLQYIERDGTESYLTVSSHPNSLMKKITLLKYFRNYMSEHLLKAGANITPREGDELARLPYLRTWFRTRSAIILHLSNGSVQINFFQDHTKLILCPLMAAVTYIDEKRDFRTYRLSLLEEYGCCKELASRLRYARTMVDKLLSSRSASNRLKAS

[10] = target: T2, Histone-lysine N-methyltransferase EHMT1 (Homo sapiens) (UniProt Q9H9B1); assay: Selectivity interaction (Methyltransferase screen (radiometric assays, panel of 8 PRMTs, 21 protein lysine methyltransferases, 3 DNA methyltransferases, and one RNA methyltransferase)) EUB0000271b EHMT1
T2 sequence (whole entry): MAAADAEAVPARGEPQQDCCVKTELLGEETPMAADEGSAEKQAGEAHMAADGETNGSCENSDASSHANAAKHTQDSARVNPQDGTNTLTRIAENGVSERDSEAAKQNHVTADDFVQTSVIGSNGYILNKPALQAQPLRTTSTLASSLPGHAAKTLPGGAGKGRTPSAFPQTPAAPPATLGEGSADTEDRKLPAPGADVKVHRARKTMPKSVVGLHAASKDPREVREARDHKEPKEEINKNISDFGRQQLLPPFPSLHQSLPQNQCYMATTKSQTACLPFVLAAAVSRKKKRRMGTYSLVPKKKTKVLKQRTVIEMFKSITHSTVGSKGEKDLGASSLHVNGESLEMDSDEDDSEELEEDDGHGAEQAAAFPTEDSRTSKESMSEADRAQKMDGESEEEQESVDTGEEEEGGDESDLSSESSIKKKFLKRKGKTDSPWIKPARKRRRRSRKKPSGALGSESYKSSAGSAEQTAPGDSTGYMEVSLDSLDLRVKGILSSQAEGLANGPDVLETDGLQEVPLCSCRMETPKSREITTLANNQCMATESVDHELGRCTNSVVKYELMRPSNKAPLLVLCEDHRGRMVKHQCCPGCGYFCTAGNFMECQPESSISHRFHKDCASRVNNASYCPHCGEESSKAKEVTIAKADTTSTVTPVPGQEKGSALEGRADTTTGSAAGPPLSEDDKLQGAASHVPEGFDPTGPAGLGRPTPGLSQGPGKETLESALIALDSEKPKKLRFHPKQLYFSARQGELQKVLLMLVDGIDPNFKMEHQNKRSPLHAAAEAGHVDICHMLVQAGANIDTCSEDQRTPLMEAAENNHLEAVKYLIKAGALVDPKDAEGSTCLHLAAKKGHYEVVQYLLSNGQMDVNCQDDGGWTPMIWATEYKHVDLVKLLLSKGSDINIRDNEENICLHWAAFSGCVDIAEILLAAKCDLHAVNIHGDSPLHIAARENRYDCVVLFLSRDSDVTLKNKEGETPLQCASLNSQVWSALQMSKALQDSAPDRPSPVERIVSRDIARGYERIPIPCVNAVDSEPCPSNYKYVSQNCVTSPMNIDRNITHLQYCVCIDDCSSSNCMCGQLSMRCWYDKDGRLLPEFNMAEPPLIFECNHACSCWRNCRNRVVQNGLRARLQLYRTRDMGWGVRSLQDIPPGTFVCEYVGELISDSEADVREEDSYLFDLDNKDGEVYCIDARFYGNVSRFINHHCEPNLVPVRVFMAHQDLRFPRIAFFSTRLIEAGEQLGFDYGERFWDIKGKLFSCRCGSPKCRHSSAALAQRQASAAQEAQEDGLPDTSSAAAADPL

SRSF protein kinase 1 = SRSF protein kinase 1 (Homo sapiens, UniProt Q96SB4); assay: Selectivity interaction (ProQinase) EUB0000171b SRPK1
Chain of SRSF protein kinase 1 (Q96SB4 whole entry): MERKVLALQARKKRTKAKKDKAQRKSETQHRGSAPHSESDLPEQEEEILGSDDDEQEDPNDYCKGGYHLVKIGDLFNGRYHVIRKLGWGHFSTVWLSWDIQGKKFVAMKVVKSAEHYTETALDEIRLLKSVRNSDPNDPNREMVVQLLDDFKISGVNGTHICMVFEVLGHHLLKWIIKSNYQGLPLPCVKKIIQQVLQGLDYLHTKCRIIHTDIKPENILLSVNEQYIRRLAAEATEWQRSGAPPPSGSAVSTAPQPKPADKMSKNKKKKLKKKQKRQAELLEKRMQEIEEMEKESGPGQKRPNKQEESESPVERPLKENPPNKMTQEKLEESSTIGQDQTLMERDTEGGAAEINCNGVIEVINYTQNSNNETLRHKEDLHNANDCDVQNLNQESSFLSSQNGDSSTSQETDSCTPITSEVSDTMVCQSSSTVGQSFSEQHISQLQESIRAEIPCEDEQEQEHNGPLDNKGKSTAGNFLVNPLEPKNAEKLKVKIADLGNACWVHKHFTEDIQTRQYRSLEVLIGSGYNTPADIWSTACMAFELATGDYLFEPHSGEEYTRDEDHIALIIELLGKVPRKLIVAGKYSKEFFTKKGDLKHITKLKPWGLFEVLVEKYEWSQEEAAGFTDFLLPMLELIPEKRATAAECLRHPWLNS

Q: For `CN(C)CC#Cc1ccc2[nH]c3c(c2c1)-c1nc(N)ncc1CCC3`, which % of control [1] is on record?
A: 13%

Q: With `CC[C@@H]1[C@H](F)C(=O)N[C@@H]1COc1nccc2cc(C(N)=O)c(OC)cc12` [ZIMLOVISERTIB] as the compound, how does the % of inhibition [2] read?
A: -8.7%

Q: What about the % of inhibition [3] of the same compound?
A: 12.1%

Q: And the % of inhibition ([4]; at 0.01 µM)?
A: -11.8%

Q: What about the % of inhibition ([4]; at 0.04 µM) of the same compound?
A: -4.6%

Q: What about the % of inhibition ([4]; at 0.2 µM) of the same compound?
A: -12.7%

Q: What about the % of inhibition ([4]; at 1 µM) of the same compound?
A: -24.1%

Q: And the % of inhibition ([4]; at 5 µM)?
A: -17.9%

Q: Which % of control ([5]; at 1 µM) does the source give for `C=CC(=O)Nc1cc(-n2c(=O)ccc3cnc4ccc(-c5ccc(NS(C)(=O)=O)cc5)cc4c32)ccc1C` here?
A: 96%

Q: And the % of control ([5]; at 10 µM)?
A: 92%

Q: For `O[C@H]1CC[C@H](Nc2ncc3nc(Nc4c(F)cc(F)cc4F)n([C@H]4CCOC4)c3n2)CC1`, which % of control [6] is on record?
A: 22%

Q: Which % of inhibition [7] does the source give for `N#Cc1cccc(-c2c[nH]c3ncnc(N4CCOCC4)c23)c1` here?
A: 2%

Q: `CN(C)CCOc1ccc(-c2nc(-c3ccncc3)c(-c3ccc4c(c3)CC/C4=N\O)[nH]2)cc1` was tested. Which % of control [8] did it give?
A: 100%

Q: Which % of inhibition [9] does the source give for `CNC(=O)Nc1ccc(-c2nc(N3CC4CCC(C3)O4)c3cnn(C4CCC5(CC4)OCCO5)c3n2)cc1` here?
A: -4%

Q: For `Cc1cc(C)cc([C@@H]2c3cc(C)ccc3NC(=O)CN2C(=O)c2ccc(Br)s2)c1`, which % of activity ([10]; at 1 µM) is on record?
A: 99%

Q: And the % of activity ([10]; at 10 µM)?
A: 99%

Q: `C=CC(=O)Nc1cccc(C(=O)Nc2ccc(Nc3cc(-c4[nH]c(SC)nc4C)ccn3)cc2)c1` was tested. Which % of control (SRSF protein kinase 1; at 1 µM) did it give?
A: 99%

Q: And the % of control (SRSF protein kinase 1; at 5 µM)?
A: 86%
